From paper PMC7782499, “Progerinin, an optimized progerin-lamin A binding inhibitor, ameliorates premature senescence phenotypes of Hutchinson-Gilford progeria syndrome” (Communications Biology, 2021) come the findings set out here.

The assay has as its target T1, progerin-lamin A binding (Homo sapiens, UniProt P02545).
T1 construct: expressed in transfected cells; host or cells: HEK293 (GFP-progerin); the GST-lamin A bait is a recombinant protein, with E. coli B834 (DE3) named for the lamin A/C fragments
T1 sequence (P02545 1-611 isoform P02545-6): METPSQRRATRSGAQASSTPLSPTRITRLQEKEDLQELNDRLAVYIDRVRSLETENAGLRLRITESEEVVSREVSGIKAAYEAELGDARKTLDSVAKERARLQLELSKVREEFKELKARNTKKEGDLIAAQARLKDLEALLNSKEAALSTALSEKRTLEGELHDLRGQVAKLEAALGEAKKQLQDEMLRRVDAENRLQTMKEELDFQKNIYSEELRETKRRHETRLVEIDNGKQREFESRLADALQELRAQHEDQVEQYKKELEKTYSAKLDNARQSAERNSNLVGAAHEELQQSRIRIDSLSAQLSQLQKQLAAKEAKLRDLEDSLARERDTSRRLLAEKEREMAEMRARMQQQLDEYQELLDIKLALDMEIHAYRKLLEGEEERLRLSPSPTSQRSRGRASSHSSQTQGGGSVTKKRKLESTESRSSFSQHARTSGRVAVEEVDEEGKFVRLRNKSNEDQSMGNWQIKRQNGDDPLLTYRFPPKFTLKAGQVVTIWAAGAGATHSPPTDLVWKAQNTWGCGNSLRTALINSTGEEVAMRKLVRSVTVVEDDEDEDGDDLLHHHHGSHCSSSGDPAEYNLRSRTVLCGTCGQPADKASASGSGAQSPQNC
Kind of assay: GST pull-down assay of progerin-lamin A binding. Conditions: 5 μM. The method, then:
Fig. 1 SLC-D011 ameliorates premature aging features of HGPS. A. HEK293 cells were transiently transfected with expression vector encoding wild-type lamin A (WT-LA), lamin A-C661A (LA-C661A), progerin, or progerin-C611A. LA-C661A or progerin-C611A with point mutation in CaaX motif was predicted to be lack of farnesylation, […] that of authentic WT-LA or progerin. GFP-conjugated empty expression vector was used as a negative control. Cells were visualized at 24 h after transfection. B Transient transfection of HEK293 cells with expression vector encoding progerin or progerin-G611A leads to reduced expression of H3K9me3 (n = 3 independent experiments; two-tailed Student’s t test). C. JH4 derivatives (JH010 and SLC-D011(D011)) inhibit lamin A and progerin interaction. For binding inhibition assay, bead-conjugated lamin A (GST-LA) was incubated with HEK293 cells, transiently transfected with GFP-progerin (PG), and treated with indicated chemicals. Actin was used as a loading control. PPT, co-precipitated materials with recombinant proteins; Sup supernatant. 5 μM of each chemical was used for binding assay. […] H3K9me3 reduction is a well-known marker for premature aged cells. Thus, H3K9me3 expression was evaluated by immunostaining. […] Cell viability was determined by MTT assay after incubation with chemicals for 7 days (n = 3 independent experiments; two-tailed Student’s t test). […]

For the molecule `CC1(C)Oc2cc3oc(=O)ccc3cc2C[C@@H]1OC/C=C/c1ccccc1` [SLC-D011], the “Effect on interaction of progerin and lamin A” value was “could block the interaction of progerin and lamin A”.
